Reference: patent publication US10710978B2, “STK4 inhibitors for treatment of hematologic malignancies” (Dana-Farber Cancer Institute, Inc., priority 2015, dated 2020)
Where two headings read alike, the source gives them in different places.

Columns and labels:
MAP2K3 = MAP2K3 (Homo sapiens (Human), UniProt P46734); experiment: KiNativ assay; format: binding; settings: H929 live cell
Description: (§1) Biochemical IC50s of the compounds of the present disclosure against various kinases were measured in a KiNativ assay. Compounds were screened in duplicate at 10 μM in H929 live cell. IC50 was measured via Mass spectroscopy (MS).

HPK1 = HPK1 (Homo sapiens (Human), UniProt Q92918); experiment: KiNativ assay; format: binding; settings: H929 live cell
Description: as §1

ATR = ATR (Homo sapiens (Human), UniProt Q13535); experiment: KiNativ assay; format: binding; settings: H929 live cell
Description: as §1

MST1, MST2 = experiment: KiNativ assay; format: binding; settings: H929 live cell; for % inhibition: range class
Description: as §1

MAPKAPK2, MAPKAPK3 = experiment: KiNativ assay; format: binding; settings: H929 live cell; for % inhibition: range class
Description: as §1

MARK2 = MARK2 (Homo sapiens (Human), UniProt Q7KZI7); experiment: KiNativ assay; format: binding; settings: H929 live cell
Description: as §1

NEK9 = NEK9 (Homo sapiens (Human), UniProt Q8TD19); experiment: KiNativ assay; format: binding; settings: H929 live cell
Description: as §1

CHK2 = CHK2 (Homo sapiens (Human), UniProt O96017); experiment: KiNativ assay; format: binding; settings: H929 live cell
Description: as §1

MPSK1 = MPSK1 (Homo sapiens (Human), UniProt O75716); experiment: KiNativ assay; format: binding; settings: H929 live cell
Description: as §1

PEK = PEK (Homo sapiens (Human), UniProt Q9NZJ5); experiment: KiNativ assay; format: binding; settings: H929 live cell
Description: as §1

PRP4 = PRP4 (Homo sapiens (Human), UniProt Q13523); experiment: KiNativ assay; format: binding; settings: H929 live cell
Description: as §1

MAP2K7 = MAP2K7 (Homo sapiens (Human), UniProt O14733); experiment: KiNativ assay; format: binding; settings: H929 live cell
Description: as §1

Erk1 = Erk1 (Homo sapiens (Human), UniProt P27361); experiment: KiNativ assay; format: binding; settings: H929 live cell
Description: as §1

[1] = tested on: RSK1 domain1, RSK2 domain1, RSK3 domain1; experiment: KiNativ assay; format: binding; settings: H929 live cell; for % inhibition: range class
Description: as §1

MSK1 domain1 = MSK1 domain1 (Homo sapiens (Human), UniProt O75582); experiment: KiNativ assay; format: binding; settings: H929 live cell
Description: as §1

MARK3 = MARK3 (Homo sapiens (Human), UniProt P27448); experiment: KiNativ assay; format: binding; settings: H929 live cell
Description: as §1

SMG1 = SMG1 (Homo sapiens (Human), UniProt Q96Q15); experiment: KiNativ assay; format: binding; settings: H929 live cell
Description: as §1

MARK1, MARK2 = experiment: KiNativ assay; format: binding; settings: H929 live cell; for % inhibition: range class
Description: as §1

STK24 (MST3) = STK24 (MST3) (Homo sapiens (Human), UniProt Q9Y6E0); experiment: Z-lyte biochemical IC50 assay (Invitrogen); settings: ATP concentration matched the Km
How it was run: (§2)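 FRET-based Z-lyte kinase assays run at Invitrogen, ATP at each kinase's Km; for STK4, 6.25-160 ng enzyme with 2 μM Ser/Thr 07 peptide in HEPES pH 7.5, MgCl2, EGTA, Brij-35, 1 h reaction then development reagent. 10-point 3-fold titration from 10 μM.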

STK4 (MST1) = STK4 (MST1) (Homo sapiens (Human), UniProt Q13043); experiment: Z-lyte biochemical IC50 assay (Invitrogen); settings: ATP concentration matched the Km
How it was run: as §2

[2] = range class, read-out: % inhibition

PEK, sequence (Q9NZJ5 30-1116): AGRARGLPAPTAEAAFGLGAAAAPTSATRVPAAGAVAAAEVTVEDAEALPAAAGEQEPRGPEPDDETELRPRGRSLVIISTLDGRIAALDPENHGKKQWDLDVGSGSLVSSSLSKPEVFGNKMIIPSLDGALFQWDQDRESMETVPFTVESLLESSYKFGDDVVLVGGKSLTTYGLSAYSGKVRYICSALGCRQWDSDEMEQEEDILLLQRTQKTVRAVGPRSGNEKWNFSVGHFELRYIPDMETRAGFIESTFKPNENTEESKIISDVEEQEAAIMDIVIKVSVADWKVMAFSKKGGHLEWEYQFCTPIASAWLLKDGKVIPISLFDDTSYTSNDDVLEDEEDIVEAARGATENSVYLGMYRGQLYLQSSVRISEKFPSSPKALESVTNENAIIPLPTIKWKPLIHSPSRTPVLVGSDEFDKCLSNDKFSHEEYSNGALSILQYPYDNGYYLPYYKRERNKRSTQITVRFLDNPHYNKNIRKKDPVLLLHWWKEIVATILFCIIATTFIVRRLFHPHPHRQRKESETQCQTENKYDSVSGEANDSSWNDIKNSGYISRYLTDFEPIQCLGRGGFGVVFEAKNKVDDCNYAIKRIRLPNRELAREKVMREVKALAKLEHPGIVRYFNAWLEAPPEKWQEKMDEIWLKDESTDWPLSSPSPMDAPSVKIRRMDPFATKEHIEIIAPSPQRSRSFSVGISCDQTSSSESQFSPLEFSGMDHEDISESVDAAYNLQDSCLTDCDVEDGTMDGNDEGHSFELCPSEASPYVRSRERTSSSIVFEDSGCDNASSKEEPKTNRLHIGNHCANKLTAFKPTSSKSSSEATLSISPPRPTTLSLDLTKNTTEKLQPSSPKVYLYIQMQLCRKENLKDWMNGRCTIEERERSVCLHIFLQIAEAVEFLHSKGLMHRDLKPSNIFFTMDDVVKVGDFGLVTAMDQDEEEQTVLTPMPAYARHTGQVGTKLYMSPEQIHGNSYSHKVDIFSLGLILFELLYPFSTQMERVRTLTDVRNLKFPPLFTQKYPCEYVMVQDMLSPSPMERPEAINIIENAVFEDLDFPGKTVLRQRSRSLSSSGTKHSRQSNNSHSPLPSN
CHK2, sequence (O96017 whole entry): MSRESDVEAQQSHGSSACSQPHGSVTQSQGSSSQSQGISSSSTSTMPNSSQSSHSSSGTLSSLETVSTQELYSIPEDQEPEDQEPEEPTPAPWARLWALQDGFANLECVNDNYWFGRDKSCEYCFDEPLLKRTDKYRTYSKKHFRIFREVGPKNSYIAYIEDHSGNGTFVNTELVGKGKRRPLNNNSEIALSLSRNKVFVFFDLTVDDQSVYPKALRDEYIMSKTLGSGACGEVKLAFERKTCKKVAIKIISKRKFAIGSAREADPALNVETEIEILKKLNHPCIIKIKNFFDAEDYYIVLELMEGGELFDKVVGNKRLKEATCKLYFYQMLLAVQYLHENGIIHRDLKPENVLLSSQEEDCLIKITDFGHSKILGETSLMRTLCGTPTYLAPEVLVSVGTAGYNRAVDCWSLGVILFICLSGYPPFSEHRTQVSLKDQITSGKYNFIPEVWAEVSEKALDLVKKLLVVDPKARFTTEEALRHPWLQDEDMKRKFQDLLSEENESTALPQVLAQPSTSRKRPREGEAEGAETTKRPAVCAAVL
MPSK1, sequence (O75716 whole entry): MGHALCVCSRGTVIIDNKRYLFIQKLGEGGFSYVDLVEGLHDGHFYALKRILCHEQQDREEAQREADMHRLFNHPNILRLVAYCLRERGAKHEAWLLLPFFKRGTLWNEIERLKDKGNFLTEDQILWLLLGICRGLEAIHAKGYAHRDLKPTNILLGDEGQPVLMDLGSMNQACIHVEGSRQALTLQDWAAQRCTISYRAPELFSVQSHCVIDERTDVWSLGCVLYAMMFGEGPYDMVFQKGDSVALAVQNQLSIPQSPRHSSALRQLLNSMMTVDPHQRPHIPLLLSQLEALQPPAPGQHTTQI
MSK1 domain1, sequence (O75582 whole entry, the tested form may be a part): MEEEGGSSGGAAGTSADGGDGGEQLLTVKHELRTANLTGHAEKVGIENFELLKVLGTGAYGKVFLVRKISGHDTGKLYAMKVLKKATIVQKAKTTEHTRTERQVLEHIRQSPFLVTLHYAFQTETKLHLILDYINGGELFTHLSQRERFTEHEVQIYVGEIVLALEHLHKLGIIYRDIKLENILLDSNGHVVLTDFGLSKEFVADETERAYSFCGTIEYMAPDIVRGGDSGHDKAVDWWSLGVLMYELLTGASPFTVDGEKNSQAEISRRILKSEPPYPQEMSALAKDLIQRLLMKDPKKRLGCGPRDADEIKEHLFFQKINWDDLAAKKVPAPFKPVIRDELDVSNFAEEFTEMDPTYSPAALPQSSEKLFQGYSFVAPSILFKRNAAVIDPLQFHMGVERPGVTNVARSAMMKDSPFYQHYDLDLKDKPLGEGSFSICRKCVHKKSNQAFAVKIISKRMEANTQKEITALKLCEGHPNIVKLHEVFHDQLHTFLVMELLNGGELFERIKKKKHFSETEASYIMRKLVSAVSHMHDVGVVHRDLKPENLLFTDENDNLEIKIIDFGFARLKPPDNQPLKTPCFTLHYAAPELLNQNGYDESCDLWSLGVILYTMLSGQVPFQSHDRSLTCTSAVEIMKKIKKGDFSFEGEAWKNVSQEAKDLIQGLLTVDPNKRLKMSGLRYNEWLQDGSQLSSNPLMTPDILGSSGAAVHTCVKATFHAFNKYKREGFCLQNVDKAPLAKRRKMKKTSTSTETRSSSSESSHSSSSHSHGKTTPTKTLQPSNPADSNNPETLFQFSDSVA
HPK1, sequence (Q92918 whole entry): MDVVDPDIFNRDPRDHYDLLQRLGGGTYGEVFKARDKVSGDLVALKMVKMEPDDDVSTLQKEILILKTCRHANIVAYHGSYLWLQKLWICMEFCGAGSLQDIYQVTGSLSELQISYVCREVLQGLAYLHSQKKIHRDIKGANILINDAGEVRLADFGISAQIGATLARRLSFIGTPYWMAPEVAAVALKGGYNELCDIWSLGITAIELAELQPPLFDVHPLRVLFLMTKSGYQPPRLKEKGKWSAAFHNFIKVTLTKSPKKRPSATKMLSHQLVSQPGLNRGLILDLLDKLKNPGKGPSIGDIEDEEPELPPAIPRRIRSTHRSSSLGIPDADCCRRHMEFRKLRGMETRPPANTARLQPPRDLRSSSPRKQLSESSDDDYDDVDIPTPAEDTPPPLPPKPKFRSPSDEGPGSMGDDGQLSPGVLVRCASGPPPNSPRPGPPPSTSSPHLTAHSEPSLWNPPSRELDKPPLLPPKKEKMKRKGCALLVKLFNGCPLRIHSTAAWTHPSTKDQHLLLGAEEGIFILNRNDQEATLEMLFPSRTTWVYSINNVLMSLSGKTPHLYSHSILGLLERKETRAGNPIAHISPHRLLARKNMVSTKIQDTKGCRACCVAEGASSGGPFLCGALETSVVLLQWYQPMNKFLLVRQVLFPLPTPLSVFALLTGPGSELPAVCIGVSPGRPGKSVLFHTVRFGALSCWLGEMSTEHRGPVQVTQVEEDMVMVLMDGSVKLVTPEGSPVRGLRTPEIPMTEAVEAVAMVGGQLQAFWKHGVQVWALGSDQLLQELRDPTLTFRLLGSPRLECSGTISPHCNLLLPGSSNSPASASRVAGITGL
NEK9, sequence (Q8TD19 whole entry): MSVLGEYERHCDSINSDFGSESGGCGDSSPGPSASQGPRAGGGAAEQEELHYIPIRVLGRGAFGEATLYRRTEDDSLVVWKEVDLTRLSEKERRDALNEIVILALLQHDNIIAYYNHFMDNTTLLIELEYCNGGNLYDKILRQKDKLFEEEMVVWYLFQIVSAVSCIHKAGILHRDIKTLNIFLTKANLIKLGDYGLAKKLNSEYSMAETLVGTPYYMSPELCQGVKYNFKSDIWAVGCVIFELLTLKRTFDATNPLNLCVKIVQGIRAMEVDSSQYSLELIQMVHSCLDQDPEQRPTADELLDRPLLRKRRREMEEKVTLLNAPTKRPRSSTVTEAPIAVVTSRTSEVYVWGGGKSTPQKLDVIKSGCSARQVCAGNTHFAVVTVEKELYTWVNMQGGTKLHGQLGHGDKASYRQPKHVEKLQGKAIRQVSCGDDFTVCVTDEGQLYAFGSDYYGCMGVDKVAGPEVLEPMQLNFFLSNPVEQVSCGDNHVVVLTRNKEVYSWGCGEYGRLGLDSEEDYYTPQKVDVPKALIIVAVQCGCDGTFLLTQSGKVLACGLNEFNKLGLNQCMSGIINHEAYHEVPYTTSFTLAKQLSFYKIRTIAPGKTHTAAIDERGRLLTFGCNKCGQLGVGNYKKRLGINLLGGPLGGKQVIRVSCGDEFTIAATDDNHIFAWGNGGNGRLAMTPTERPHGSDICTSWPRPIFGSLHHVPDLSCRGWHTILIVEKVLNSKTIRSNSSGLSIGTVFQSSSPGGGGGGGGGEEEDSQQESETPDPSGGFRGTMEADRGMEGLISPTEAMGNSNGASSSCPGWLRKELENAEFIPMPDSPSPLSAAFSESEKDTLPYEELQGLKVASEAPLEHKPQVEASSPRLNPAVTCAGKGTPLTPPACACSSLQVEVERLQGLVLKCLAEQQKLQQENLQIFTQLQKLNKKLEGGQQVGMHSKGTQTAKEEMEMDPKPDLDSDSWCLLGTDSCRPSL
MAP2K3, sequence (P46734 whole entry): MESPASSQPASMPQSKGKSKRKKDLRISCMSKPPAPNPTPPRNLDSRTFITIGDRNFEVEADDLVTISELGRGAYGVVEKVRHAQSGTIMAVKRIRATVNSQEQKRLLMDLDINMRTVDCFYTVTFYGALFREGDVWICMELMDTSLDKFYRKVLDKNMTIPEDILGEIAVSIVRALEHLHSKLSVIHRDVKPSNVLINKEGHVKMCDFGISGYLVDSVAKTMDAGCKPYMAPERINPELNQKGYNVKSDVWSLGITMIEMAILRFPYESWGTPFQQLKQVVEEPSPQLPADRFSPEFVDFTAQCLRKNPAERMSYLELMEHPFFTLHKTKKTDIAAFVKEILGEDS

SMILES	inhibition at 10 µM (MAP2K3; read-out: inhibition (10 μM)) [%]	inhibition at 10 µM (HPK1; read-out: inhibition (10 μM)) [%]	inhibition at 10 µM (ATR; read-out: inhibition (10 μM)) [%]	inhibition (10 μM) (MST1, MST2) [%]	inhibition (10 μM) (MAPKAPK2, MAPKAPK3) [%]	inhibition at 10 µM (MARK2; read-out: inhibition (10 μM)) [%]	inhibition at 10 µM (NEK9; read-out: inhibition (10 μM)) [%]	inhibition at 10 µM (CHK2; read-out: inhibition (10 μM)) [%]	inhibition at 10 µM (MPSK1; read-out: inhibition (10 μM)) [%]	inhibition at 10 µM (PEK; read-out: inhibition (10 μM)) [%]	inhibition at 10 µM (PRP4; read-out: inhibition (10 μM)) [%]	inhibition at 10 µM (MAP2K7; read-out: inhibition (10 μM)) [%]	inhibition at 10 µM (Erk1; read-out: inhibition (10 μM)) [%]	inhibition (10 μM) [1] [%]	inhibition at 10 µM (MSK1 domain1; read-out: inhibition (10 μM)) [%]	inhibition at 10 µM (MARK3; read-out: inhibition (10 μM)) [%]	inhibition at 10 µM (SMG1; read-out: inhibition (10 μM)) [%]	inhibition (10 μM) (MARK1, MARK2) [%]	IC50 (STK24 (MST3)) [nM]	IC50 (STK4 (MST1)) [nM]	further results
Nc1ncc(-c2ccc(NS(=O)(=O)C3CC3)cc2OC2CCCCC2)cc1-c1ccc2c(c1)CCNC2=O [Compound I-65, N-(4-(6-amino-5-(1-oxo-1,2,3,4-tetrahydroisoquinolin-6-yl)pyridin-3-yl)-3-(cyclohexyloxy)phenyl) cyclopropanesulfonamide]	-6.1	95.5	28.1	98.7	−52.2	-45.1	-27.8	11.2	72.8	-12.9	-19.3	3.3	-30.7	68.4	-52.5	-22.7	68.8	−29.4	> 900	< 40	inhibition at 10 µM (MAP2K3; [2]): 0%; inhibition at 10 µM (HPK1; [2]): > 90%; inhibition at 10 µM (ATR; [2]): 0%; % inhibition (MST1, MST2; 10 μM): >90%; % inhibition (MAPKAPK2, MAPKAPK3; 10 μM): 0.0%; inhibition at 10 µM (MARK2; [2]): 0%; inhibition at 10 µM (NEK9; [2]): 0%; inhibition at 10 µM (CHK2; [2]): 0%; inhibition at 10 µM (MPSK1; [2]): 50 to 75%; inhibition at 10 µM (PEK; [2]): 0%; inhibition at 10 µM (PRP4; [2]): 0%; inhibition at 10 µM (MAP2K7; [2]): 0%; inhibition at 10 µM (Erk1; [2]): 0%; % inhibition ([1]; 10 μM): 50-75%; inhibition at 10 µM (MSK1 domain1; [2]): 0%; inhibition at 10 µM (MARK3; [2]): 0%; inhibition at 10 µM (SMG1; [2]): 50 to 75%; % inhibition (MARK1, MARK2; 10 μM): 0.0%
COc1cc(NS(=O)(=O)C2CC2)ccc1-c1cnc(N)c(-c2ccc3c(c2)CCNC3=O)c1 [Compound I-50, N-(4-(6-amino-5-(1-oxo-1,2,3,4-tetrahydroisoquinolin-6-yl)pyridin-3-yl)-3-methoxyphenyl) cyclopropanesulfonamide]	-5.7	90.4	17.1	98.7	−34.3	-8.6	5.9	19.3	15.7	7.9	-17.9	16.4	29	15.8	0.1	-17.3	30.8	−29.5	200 to 900	< 40	inhibition at 10 µM (MAP2K3; [2]): 0%; inhibition at 10 µM (HPK1; [2]): > 90%; inhibition at 10 µM (ATR; [2]): 0%; % inhibition (MST1, MST2; 10 μM): >90%; % inhibition (MAPKAPK2, MAPKAPK3; 10 μM): 0.0%; inhibition at 10 µM (MARK2; [2]): 0%; inhibition at 10 µM (NEK9; [2]): 0%; inhibition at 10 µM (CHK2; [2]): 0%; inhibition at 10 µM (MPSK1; [2]): 0%; inhibition at 10 µM (PEK; [2]): 0%; inhibition at 10 µM (PRP4; [2]): 0%; inhibition at 10 µM (MAP2K7; [2]): 0%; inhibition at 10 µM (Erk1; [2]): 0%; % inhibition ([1]; 10 μM): 0.0%; inhibition at 10 µM (MSK1 domain1; [2]): 0%; inhibition at 10 µM (MARK3; [2]): 0%; inhibition at 10 µM (SMG1; [2]): 0%; % inhibition (MARK1, MARK2; 10 μM): 0.0%
Nc1ncc(-c2cccc3ncsc23)cc1-c1ccc2c(c1)CCNC2=O [Compound I-13, 6-(2-amino-5-(benzo[d]thiazol-7-yl)pyridin-3-yl)-3,4-dihydroisoquinolin-1(2H)-one]	1.1	52.1	-16.1	89.4	2.5	32.3	-10	19.7	-28.8	-40.8	73.4	15.1	75	13.1	9.5	46.2	61	2.9	> 900	< 40	inhibition at 10 µM (MAP2K3; read-out: % inhibition (range)): 0%; inhibition at 10 µM (HPK1; read-out: % inhibition (range)): 50 to 75%; inhibition at 10 µM (ATR; read-out: % inhibition (range)): 0%; % inhibition (range) (MST1, MST2; 10 μM): 75-90%; % inhibition (range) (MAPKAPK2, MAPKAPK3; 10 μM): 0.0%; inhibition at 10 µM (MARK2; read-out: % inhibition (range)): 0%; inhibition at 10 µM (NEK9; read-out: % inhibition (range)): 0%; inhibition at 10 µM (CHK2; read-out: % inhibition (range)): 0%; inhibition at 10 µM (MPSK1; read-out: % inhibition (range)): 0%; inhibition at 10 µM (PEK; read-out: % inhibition (range)): 0%; inhibition at 10 µM (PRP4; read-out: % inhibition (range)): 50 to 75%; inhibition at 10 µM (MAP2K7; read-out: % inhibition (range)): 0%; inhibition at 10 µM (Erk1; read-out: % inhibition (range)): 75 to 90%; % inhibition (range) ([1]; 10 μM): 0.0%; inhibition at 10 µM (MSK1 domain1; read-out: % inhibition (range)): 0%; inhibition at 10 µM (MARK3; read-out: % inhibition (range)): 35 to 50%; inhibition at 10 µM (SMG1; read-out: % inhibition (range)): 50 to 75%; % inhibition (range) (MARK1, MARK2; 10 μM): 0.0%
